Assay results published in patent US20260151327A1, “COSMETIC COMPOSITION FOR SKIN PROTECTION CONTAINING SCUTELLARIA BAICALENSIS EXTRACT AS ACTIVE INGREDIENT” (EVERBIO CO., LTD., priority 2022, published 2026).

How the values were obtained:
Format in all cases: cell-based
[1] = system: CCAAT enhancer binding protein alpha (CEBP-α); assay: mRNA expression level of CEBP-α in ASCs (RT-PCR); conditions: 50 μM/mL benzo[a]pyrene (BP50) vs control (Con)
Experimental: The influence of benzo[a]pyrene and the Scutellaria baicalensis extract on the mRNA expression level of CCAAT enhancer binding protein alpha (CEBP-α), one of the lipolysis promoting genes, was investigated by the method as below.
The adipose-derived stem cells were divided into i) a control group with no treatment (Con), ii) a group treated with 50 μM/mL benzo[a]pyrene (BP50), iii) a group treated with 50 μM/mL benzo[a]pyrene and 200 μL/mL Scutellaria baicalensis extract (SBE200+BP50), and iv) a group treated with 50 μM/mL benzo[a]pyrene and 400 μL/mL Scutellaria baicalensis extract (SBE400+BP50), and the total RNA of each cell group was extracted using […] (GeneAll, Seoul, Korea). RNA was used to synthesize cDNA under the conditions of 1 minute at 95° C. and 35 seconds at 72° C. by using Maxime RT PreMix (iNtRON, Seungnam, Korea). The synthesized cDNA was amplified using the primers shown in Table 1 under the conditions of 15 seconds at 95° C., 30 seconds at 59° C., and 1 minute at 72° C. The amount of cDNA amplification was analyzed using iBright (FL1000, Thermo Fisher Scientific, Waltham, MA, USA) and iBright Analysis software 3.1.3 (Thermo Fisher Scientific, Waltham, MA, MA, USA), and the results are shown in FIG. 5.

[2] = system: hormone sensitive lipase (HSL); assay: Lipolysis promoting effect in ASCs, FITC-anti-HSL staining, flow cytometry and HSL synthesis level; conditions: benzo[a]pyrene alone (BP50)
Experimental: (§1) AMP-activated protein kinase (AMPK) and hormone sensitive lipase (HSL), most common lipolytic enzymes, were applied to adipose-derived stem cells (ASCs), and the lipids obtained by degradation through AMPK were stained with PE-anti-AMPK (R&D system, USA), and the lipids obtained by degradation through HSL were stained with FITC-anti-HSL (R&D system, USA) for 24 hours. The lipids were washed with PBS, and then analyzed using a flow cytometer (FACSCalibur) and FlowJo v10.6.1 (BD Bioscience, USA), and the results are shown in FIG. 3A.
(§2) The synthesis levels of AMPK and HSL were analyzed and plotted in FIG. 3B.

[3] = Cytotoxicity (CC50) in adipose-derived stem cells, 3 days exposure; conditions: human, adipose-derived stem cells (ASCs, ATCC PCS-500-011), benzo[a]pyrene, ASCs exposed for 3 days; read-out: CC50 (50% cytotoxicity concentration)
Experimental: (§3) PCS-500-011™ cells (Thermo-Fisher Scientific, USA) were purchased as adipose-derived stem cells (ASCs) used in the experiment, from American Type Culture Collection (ATCC), and subcultured for 3 passages in the MesenPRO RS™ medium and MesenPRO RS™ growth supplement medium (Thermo-Fisher scientific, USA) until the live cells reached 80% to 90% confluency.
(§4) Specifically, the cell stock vial was thawed in a 37° C. water bath and suspended in a medium with an equal volume of the cell stock vial, and then the suspension was transferred to a tube and centrifuged (2,000 rpm, 2 min, 4° C.), followed by removal of the supernatant. The phosphate buffered saline (PBS) was added to the cell pellets remaining after the removal of the supernatant, and then the above procedures were repeated three times. Thereafter, the resultant product was placed in a medium where the cell pellets were to be grown, followed by gentle pipetting up and down, thereby preparing a cell suspension. The cell suspension was dispensed into a flask or dish containing an appropriate amount of medium. The cells were subcultured when the cells reached 70% to 80% confluency on the bottom.
(§5) PBS, media, and trypsin-EDTA were warmed at 37° C. for 30 minutes before use. The supernatant medium was removed by suction, and PBS was dispensed. […]

[4] = system: adipose-derived stem cells (ASCs); assay: as above; conditions: benzo[a]pyrene, ASCs exposed for 3 days; read-out: CC50 (50% cytotoxicity concentration)
Experimental: as §3, §4, §5

[5] = system: adipose-derived stem cells (ASCs); assay: Annexin-V-PI staining and flow cytometry: protection of ASCs against benzo[a]pyrene toxicity; conditions: human, 50 μM/mL
Experimental: The adipose-derived stem cell (ASC) protective effect of the Scutellaria baicalensis extract against the cell toxicity of benzo[a]pyrene was analyzed as below.
The adipose-derived stem cells cultured by the method in Example 1-1 were divided into i) a group treated with 50 μM/mL benzo[a]pyrene (BP50), ii) a group treated with 50 μM/mL benzo[a]pyrene and 200 μL/mL Scutellaria baicalensis extract (SBE200+BP50), and iii) a group treated with 50 μM/mL benzo[a]pyrene and 400 μL/mL Scutellaria baicalensis extract (SBE400+BP50). To observe cell apoptosis, the cells were stained using Annexin-V-PI dye kit (Invitrogen, USA). Since Annexin-V binds to phosphatidylserine (PS), which was exposed on the outer cell membrane during early apoptosis, early apoptosis can be identified using Annexin-V. Meanwhile, propidium iodide (PI), which binds to the nucleus, stains the nucleus through holes formed in the cell membrane in a state of late apoptosis or necrosis, thereby allowing the identification of late apoptotic or dead cells. […] For result analysis, the cellular viability was measured using a flow cytometer (BD FACSCalibur) and FlowJo 10.6.1 (BD Bioscience), and the results are shown in FIG. 2.

[6] = system: AMP-activated protein kinase (AMPK); assay: Lipolysis promoting effect in ASCs, PE-anti-AMPK staining, flow cytometry and AMPK synthesis level; conditions: benzo[a]pyrene alone (BP50)
Experimental: as §1, §2

Compound: c1ccc2c(c1)cc1ccc3cccc4ccc2c1c34 [benzo[a]pyrene, Benzo[a]pyrene]
- mRNA expression level of CEBP-α, fold higher than control group [1]: 4.73 fold
- proportion of cells undergoing lipolysis by HSL [2]: 14.92%
- CC50 at 3 days [3]: 25 µM
- CC50 [4]: 50 µM
- cellular viability [5]: 48.1%
- early apoptotic cell proportion [5]: 29.6%
- late apoptotic cell proportion [5]: 51.8%
- proportion of cells undergoing lipolysis by AMPK [6]: 18.72%
